For data set [1] the following is noted: Crystal; DTA.
Data set [2] in a line: Molar enthalpy of transition or fusion. The conditions noted are these: Crystal; DSC.

These results are taken from the NIST ThermoML archive (doi:10.1016/j.jct.2016.07.001).

Numbers after ± are expanded uncertainties.

As to `O=S(=O)(c1ccc(O)cc1)c1ccccc1O` [2,4'-dihydroxydiphenyl sulfone], the Normal melting temperature in data set [1] was 182.20 ± 1.1 °C. The “Molar enthalpy of transition or fusion” value in data set [2] was 10.2 ± 0.263 kcal/mol.
